We go through 9 compounds from patent EP0613879A1, “PHELLODENDRINE ANALOGS AND ALLERGY TYPE IV SUPPRESSOR CONTAINING THE SAME AS ACTIVE INGREDIENT” (TSUMURA & CO., priority 1991, dated 1992).

Each structure is given as a SMILES string.

The test system of series [1] is sole reaction in sheep red blood cells (SRBC). The series can be described thus: sole reaction to sheep red blood cells (SRBC), foot volume increase 24 hours after induction. The class given is in vivo, BALB/c mice. Particulars: 3.0 x 10⁻⁴ mol/kg orally for four days after the sensitization. Here is the method: The actions of the compounds of the present invention in the course of creation of the cellular immunity were studied using the sole reaction in sheep red blood cells (SRBC).
BALB/c mice (female, age: 7 weeks) were sensitized by injecting 0.2 ml of SRBC adjusted to 2.5 x 10⁵ cells/ml with a physiological saline solution into caudal vein. Four days after the sensitization, the volume of the right foot of the mice was measured. Then, 0.025 ml of SRBC from the same lot as above adjusted to 4 x 10⁹ cells/ml was subcutaneously injected into the right sole to induce a reaction. 24 hours after the reaction has been induced, the intensity of the reaction was determined by subtracting the right foot volume before the reaction from the volume after the reaction. The test compounds at a concentration of 3.0 x 10⁻⁴ mol/kg were orally administered for four days after the sensitization.

A further series deals with ICR mice. Particulars: mouse, in vivo, po. An excerpt:
Compounds obtained in Synthetic Examples 18, 35, and 66 were orally administered to ICR mice (each dose to each group consisting of 10 mice).

Setting [2] is: against Control 3 (Purified water).
Setting [3] is: against Control 2 (5% ethanol-olive oil).

Take `Oc1cccc(CNCc2cccc(O)c2)c1` [Synthetic Example 7, N,N-bis(3-hydroxybenzyl)amine]: the “Rate of suppression (%)” value in series [1] (setting [2]) is 54.4%.
Take `COc1ccc(CC(=O)NCCc2ccc(O)c(OC)c2)cc1O` [Synthetic Example 18, N-(4-hydroxy-3-methoxyphenetyl)-3-hydroxy-4-methoxyphenylacetamide]: in the series on ICR mice, the “dose up to which no death was caused” value is recorded as ≤ 1,000 mg/kg.
`CN(Cc1ccc(O)cc1)C(=O)c1cccc(O)c1` [Synthetic Example 25, N-(4-hydroxybenzyl)-N-methyl-3-hydroxybenzamide]: the “Rate of suppression (%)” value in series [1] (setting [3]) is 26.7%.
On to `COc1ccc(CN(C)Cc2cccc(OC)c2)cc1` [Synthetic Example 27, N-(4-methoxybenzyl)-N-methyl-3-methoxybenzylamine], for which the “Rate of suppression (%)” value in series [1] (setting [2]) is reported as 32.8%.
Consider `CN(Cc1ccc(O)cc1)Cc1cccc(O)c1` [Synthetic Example 30, N-(4-hydroxybenzyl)-N-methyl-3-hydroxybenzylamine], for which the “Rate of suppression (%)” value in series [1] (setting [3]) was 33.2%.
As to `COc1ccc(CN(C)Cc2ccc(O)c(OC)c2)cc1O` [Synthetic Example 35, N-(4-hydroxy-3-methoxybenzyl)-N-methyl-3-hydroxy-4-methoxybenzylamine], the “dose up to which no death was caused” value in the series on ICR mice is reported as ≤ 1,000 mg/kg.
As for `COc1ccc(CNCc2ccc(OC)cc2)cc1.O=C(O)/C=C\C(=O)O` [Synthetic Example 46, N,N-bis(4-methoxybenzyl)amine maleate], the “Rate of suppression (%)” value in series [1] (against Control 1 (0.5% gum arabic-purified water)) came out at 38.1%.
For `CCN(Cc1ccc(O)cc1)Cc1cccc(O)c1` [Synthetic Example 61, N-ethyl-N-(4-hydroxybenzyl)-3-hydroxybenzylamine], the “Rate of suppression (%)” value in series [1] (setting [3]) came to 21.8%.
For the compound `COc1ccc(CCNCCc2ccc(O)c(OC)c2)cc1O` [Synthetic Example 66, N-(4-hydroxy-3-methoxyphenetyl)-3-hydroxy-4-methoxyphenetylamine], the “dose up to which no death was caused” value in the series with ICR mice is given as ≤ 1,000 mg/kg.
